The values below come from ChEMBL document CHEMBL1141903, “Synthesis and evaluation of CCR5 antagonists containing modified 4-piperidinyl-2-phenyl-1-(phenylsulfonylamino)-butane” (Bioorg Med Chem Lett, 2005).

Assay [1] concerns the target C-C chemokine receptor type 5 (Homo sapiens, UniProt P51681). Description: Inhibitory concentration against human C-C chemokine receptor type 5 in CHO cells with [125I]-MIP-1 alpha radioligand. The assay is classed as cell-based.
For assay [2], the system named is Human immunodeficiency virus 1. Description: Antiviral activity in an in vitro HIV replication assay. The format is functional, organism-based.

Chain of C-C chemokine receptor type 5 (P51681 whole entry): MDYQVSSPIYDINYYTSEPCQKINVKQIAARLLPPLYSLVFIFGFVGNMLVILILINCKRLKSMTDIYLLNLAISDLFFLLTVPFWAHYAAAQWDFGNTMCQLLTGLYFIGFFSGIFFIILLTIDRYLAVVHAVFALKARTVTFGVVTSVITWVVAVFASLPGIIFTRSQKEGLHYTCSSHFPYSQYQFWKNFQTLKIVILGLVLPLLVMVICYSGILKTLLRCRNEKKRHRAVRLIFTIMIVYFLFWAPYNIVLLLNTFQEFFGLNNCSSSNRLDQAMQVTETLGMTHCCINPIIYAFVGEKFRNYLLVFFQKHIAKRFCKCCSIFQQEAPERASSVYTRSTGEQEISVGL

Usually IC50 stands for the concentration at which inhibition is half-maximal. The low end stands for higher potency, the high end for lower potency. In assay [1], `CN(C[C@@H](CCN1CCC(N2C[C@H](c3ccccc3)OC2=O)CC1)c1ccccc1)S(=O)(=O)c1ccccc1` showed a half-maximal inhibitory concentration (IC50) of more than 100 nM. `C[C@H]1[C@@H](c2ccccc2)OC(=O)N1C1CCN(CC[C@H](CN(C)S(=O)(=O)c2ccccc2)c2ccccc2)CC1` returned a half-maximal inhibitory concentration (IC50) in assay [1] of 36.7 nM. As to `C[C@@H]1[C@@H](c2ccccc2)OC(=O)N1C1CCN(CC[C@H](CN(C)S(=O)(=O)c2ccccc2)c2ccccc2)CC1`, the IC50 in assay [1] is 350 nM. The same measure, in the same setting: next, `CN(C[C@@H](CCN1CCC(N2C[C@@H](c3ccccc3)OC2=O)CC1)c1ccccc1)S(=O)(=O)c1ccccc1`: 31.9 nM. The same measure, in the same setting: next, `CN(C[C@@H](CCN1CCC2C(CCN2C(=O)OC(C)(C)C)C1)c1ccccc1)S(=O)(=O)c1ccccc1` (some centres undefined): 16 nM.

One may read the IC90 as the concentration at which the effect reaches the 90% level. Read a low IC90 as greater potency. `CN(C[C@@](C)(CCN1CCC2C(CCC(=O)N2Cc2ccccc2)C1)c1ccccc1)S(=O)(=O)c1ccccc1` (some centres undefined) displayed an IC50 in assay [1] of 10 nM. The molecule further yielded an IC90 in assay [2] (Human immunodeficiency virus 1) of 333 nM.

Molecule `C=CCN(C(=O)OCc1ccc([N+](=O)[O-])cc1)C1CCN(CC[C@](C)(CN(C)S(=O)(=O)c2ccccc2)c2ccccc2)CC1` had an IC50 in assay [1] of 1 nM. This molecule yielded an IC90 in assay [2] (Human immunodeficiency virus 1) of 3 nM. For `CN(C[C@](C)(CCN1CCC2C(CCN2C(=O)OCc2ccc([N+](=O)[O-])cc2)C1)c1ccccc1)S(=O)(=O)c1ccccc1` (mixture of isomers), in that order: 3.6 nM and 111 nM. For `CN(C[C@@](C)(CCN1CCC2C(CCN2C(=O)OCc2ccccc2)C1)c1ccccc1)S(=O)(=O)c1ccccc1` (mixture of isomers), in that order: 9 nM and more than 300 nM. In the case of `CN(C[C@@](C)(CCN1CCC2C(CCC(=O)N2Cc2ccc([N+](=O)[O-])cc2)C1)c1ccccc1)S(=O)(=O)c1ccccc1` (mixture of isomers), the IC50 in assay [1] amounted to 5.3 nM. In addition, in assay [2] (Human immunodeficiency virus 1), the IC90 worked out at 333 nM.

`CN1C(=O)CCC2CN(CC[C@](C)(CN(C)S(=O)(=O)c3ccccc3)c3ccccc3)CCC21` (mixture of isomers) registered an IC50 in assay [1] of 28 nM. In assay [2] (Human immunodeficiency virus 1), this molecule showed an IC90 of more than 300 nM.

Turning to `CN(C[C@@](C)(CCN1CCC2C(CCN2C(=O)OC(C)(C)C)C1)c1ccccc1)S(=O)(=O)c1ccccc1` (mixture of isomers), the IC50 in assay [1] came to 11 nM. The IC90 in assay [2] (Human immunodeficiency virus 1) amounted to 111 nM. In the case of `CN(C[C@@](C)(CCN1CCC2NCCC2C1)c1ccccc1)S(=O)(=O)c1ccccc1` (mixture of isomers), in assay [1], the IC50 is more than 2000 nM.

Molecule `CN(C[C@@](C)(CCN1CCC2C(CCN2C(=O)Cc2ccccc2)C1)c1ccccc1)S(=O)(=O)c1ccccc1` (mixture of isomers) gave a concentration for half-maximal inhibition (IC50) in assay [1] of 6.4 nM. In assay [2] (Human immunodeficiency virus 1), it took 111 nM to reach the 90% level (IC90). In turn, `CN(CC(C)(CCN1CCC2C(CCN2C(=O)OC(C)(C)C)C1)c1ccccc1)S(=O)(=O)c1ccccc1` (single isomer, unassigned; isomer A) showed a 50% inhibitory concentration (IC50) in assay [1] of more than 2000 nM. `CN(CC(C)(CCN1CCC2C(CCN2C(=O)OCc2ccc([N+](=O)[O-])cc2)C1)c1ccccc1)S(=O)(=O)c1ccccc1` (single isomer, unassigned; isomer A) gave a 50% inhibitory concentration (IC50) in assay [1] of 21 nM. In addition, the IC90 in assay [2] came to 300 nM. With `CN(CC(C)(CCN1CCC2C(CCN2C(=O)OC(C)(C)C)C1)c1ccccc1)S(=O)(=O)c1ccccc1` (single isomer, unassigned; isomer B), the half-inhibitory concentration (IC50) in assay [1] turned out to be 2 nM. In assay [2] (Human immunodeficiency virus 1), this molecule returned an IC90 of 100 nM. Take `CN(CC(C)(CCN1CCC2C(CCN2C(=O)OCc2ccc([N+](=O)[O-])cc2)C1)c1ccccc1)S(=O)(=O)c1ccccc1` (single isomer, unassigned; isomer B): the IC50 in assay [1] was found to be 2 nM. In assay [2], the IC90 was determined as 33 nM.
